# Assay results published in patent US20180071284A1, “PREVENTING OR TREATING VIRAL INFECTION BY INHIBITION OF THE HISTONE METHYLTRANSFERASE EZH1 OR EZH2” (The United States of America, as represented by the …, priority 2015, published 2018).
# Entries after “also recorded” stand apart in the source; their conditions may differ.
# Key:
# [1] = system: HSV-1; experiment: Spread of HSV infection in HFF cells (UL29 staining); format: cell-based, herpes simplex virus 1 (HSV-1); settings: HSV-1 MOI 0.01 for 8.5-hrs, then treated for 12.5-hrs (30 μM)
# Experimental: HFF cells were mock or infected with HSV-1 (MOI 0.01) for 8.5-hrs to allow one round of the viral replication program. The HFF cells were then treated with EZH1/2 inhibitor (compound 1 or compound 4 at 30 μM), viral DNA polymerase inhibitor (ACV at 100 μM), or JMJD3 inhibitor (ML324 at 50 μM) for an additional 12.5-hrs. Cells were paraformaldehyde fixed, permeabilized, and stained for the viral E gene UL29 and actin. The viral E protein UL29 was used as a marker for the spread of viral infection.
# HFF cells were mock or infected with HSV-1 (MOI 0.01) for 8.5-hrs to allow one round of the viral replication program. HFF cells were then treated with EZH1/2 (compound 1, compound 4), viral DNA polymerase (ACV), or JMJD3 (ML324) inhibitors for additional 12.5-hrs. Cells were paraformaldehyde fixed, permeabilized, and stained for the viral E gene UL29 and actin (Phalloidin). The viral E protein UL29 was used as a marker for the spread of viral infection.
# [2] = system: cytokines, chemokines, and adhesion proteins involved in innate signaling; experiment: RNA-seq analysis of explanted trigeminal ganglia from HSV-1 latently infected mice; format: cell-based; settings: 30 μM, 12 hrs
# Experimental: Trigeminal ganglia from HSV-1 latently infected mice were explanted in media with control DMSO (vehicle) or in media with compound 4 (30 μM) for 12 hrs. Total cellular RNA was isolated and RNA-seq analysis identified the induction of cytokines, chemokines, and adhesion proteins involved in innate signaling and recruitment of immune effector cells. The results are in Table 1 below, where changes in gene expression are expressed as ratios of compound 4 relative to vehicle.
# [3] = system: HSV-1; experiment: Removal of inhibitors prior to HSV-1 infection of HFF cells (mRNA levels); format: cell-based, herpes simplex virus 1 (HSV-1); settings: washed, then infected
# Experimental: HFF cells were treated with inhibitors targeting the catalytic SET domain (compound 1, 35 μM: EZH2; compound 2, 15 μM: EZH2 and EZH1; compound 4, 30 μM: EZH2), EED-EZH2 and EED-EZH1 (compound 3, 30 μM), or DMSO (control) for 5-hrs. Cells were then washed with phosphate buffered saline (PBS) and replaced with media with no inhibitors for the indicated time in FIGS. 21-24 prior to infection with HSV-1 (2.0 PFU per cell) for 1.5-hrs in the absence of inhibitors.
# [4] = system: HFF cells; experiment: Microarray analysis of HFF cells; format: cell-based, human; settings: 30 μM, 4-hrs
# Excerpt: -[…] (2013), incorporated herein by reference). In normal fibroblast cells (as opposed to established cell lines or transformed cells lines), 41 genes are co-regulated by IFN (16%) and compound 4 treatment alone.
# [5] = system: IFN-α, TNF-α, IL-8 mRNAs; experiment: Cellular innate interferon signaling mRNAs in mock or HSV-1 infected HFF cells; format: cell-based, human; settings: 30 μM, 5-hrs
# Experimental: HFF cells were treated with EZH1/2 catalytic inhibitor compound 4 (30 μM) or DMSO for 5-hrs. HFF cells were then mock or infected with HSV-1 (2.0 PFU per cell) for 1.5-hrs in the presence of inhibitor or DMSO. The levels of HSV viral IE (ICP4 and ICP27), control (SP1), and cellular innate interferon signaling (IFN-α, TNF-α, IL-8) mRNAs are expressed as absolute levels (absolute copies).
# [6] = normal fibroblast cells data set
smiles,measurement,setting,value
"CC[C@H](C)n1cc(C)c2c(C(=O)NCc3c(C)cc(C)[nH]c3=O)cc(-c3ccc(N4CCNCC4)nc3)cc21 [compound 4, GSK126]",spread of HSV infection to adjacent cells (UL29 marker),[1],block the spread of HSV to adjacent cells; also recorded: block the spread of HSV infection
same,"genes induced >2 fold that are co-regulated by IFN (Interferome), ganglia explants",[2],33 genes
same,"share of genes induced >2 fold that are co-regulated by IFN (Interferome), ganglia explants",[2],69%
same,Fold Change (Cmpd. 4 relative to vehicle),[2]; Gene CCL2 (Chemokines),2.23
same,Fold Change (Cmpd. 4 relative to vehicle),[2]; Gene CXCL1 (Chemokines),6.30
same,Fold Change (Cmpd. 4 relative to vehicle),[2]; Gene CXCL2 (Chemokines),5.11
same,Fold Change (Cmpd. 4 relative to vehicle),[2]; Gene CXCL3 (Chemokines),2.68
same,Fold Change (Cmpd. 4 relative to vehicle),[2]; Gene CXCL5 (Chemokines),3.78
same,Fold Change (Cmpd. 4 relative to vehicle),[2]; Gene G-CSF (Cytokines),6.16
same,Fold Change (Cmpd. 4 relative to vehicle),[2]; Gene GM-CSF (Cytokines),5.51
same,Fold Change (Cmpd. 4 relative to vehicle),[2]; Gene ICAM1 (Adhesion),2.51
same,Fold Change (Cmpd. 4 relative to vehicle),[2]; Gene IL6 (Cytokines),3.61
same,Fold Change (Cmpd. 4 relative to vehicle),[2]; Gene IL11 (Cytokines),2.16
same,Fold Change (Cmpd. 4 relative to vehicle),[2]; Gene LIF (Cytokines),2.66
same,Fold Change (Cmpd. 4 relative to vehicle),[2]; Gene SELE (Adhesion),3.86
same,Fold Change (Cmpd. 4 relative to vehicle),[2]; Gene SELP (Adhesion),3.16
same,Fold Change (Cmpd. 4 relative to vehicle),[2]; Gene VEGF-c (Cytokines),2.10
same,HSV IE expression after removal of compound prior to infection,"[3]; 5-hrs treatment (compound 1 35 μM, 2 15 μM, 3 30 μM, 4 30 μM)",recovery of HSV IE expression
same,IL6 stimulation after removal of compound prior to infection,[3]; 5-hrs treatment,decrease in IL6 stimulation
same,genes induced >2 fold that are co-regulated by IFN (Interferome),[4],212 genes
same,genes induced greater than 2 fold relative to vehicle (microarray),[4],252 genes
same,pro-inflammatory pathways induced (Ingenuity Pathway Analysis),[4],"IL6, IL17, TLR, HMGB1, and JAK/STAT signaling pathways"
same,share of genes induced >2 fold that are co-regulated by IFN (Interferome),[4],84%
same,genes co-regulated by IFN in normal fibroblast cells,[4]; [6],41 genes
same,share of genes co-regulated by IFN in normal fibroblast cells,[4]; [6],16%
same,"expression of innate antiviral signaling molecules IFN-α, TNF-α, and IL-8",[5],induces the expression
